This is an account of results in article PMC6696115, “Characterization of Antimicrobial, Antioxidant, and Leishmanicidal Activities of Schiff Base Derivatives of 4-Aminoantipyrine” (Molecules, 2019).

≈ marks a conversion by molar mass, not a printed value.

Usually MIC stands for the smallest concentration in the dilution series that meets the test's criterion for growth inhibition. Lower therefore signals inhibition by little substance. The term IC50 denotes the concentration that gives 50% inhibition.

Assay [1] relates to Enterococcus faecalis ATCC 29212. Description: antimicrobial serial microdilution, E. faecalis. Type of assay: cell-based. To be noted: Enterococcus faecalis, ATCC29212; serial microdilution, 37 °C, 24 h. A general note: Broth dilution looks for growth in wells or tubes with falling amounts of substance.
In assay [2] the test system is Escherichia coli ATCC 25922. Description: antimicrobial serial microdilution, E. coli. Type of assay: cell-based. To be noted: serial microdilution, 37 °C, 24 h.
The nature of assay [3]: DPPH radical scavenging assay. The assay is classed as biochemical. To be noted: statement in words.
The test system of assay [4] is S. cerevisiae wild type (BY4741). Description: growth inhibition (OD600) of wild-type yeast, oxidative effect. The assay is classed as cell-based, Saccharomyces cerevisiae. Here is the method:
(§1) Next, we wanted to evaluate the oxidative activity. To do this, drop test assays were performed with wild-type (W303 and BY4741 backgrounds) and sod1 (BY4741 background) yeast cells in the presence of 200 µg/mL of the analyzed Schiff bases (Figure 3). The SOD1 gene encodes superoxide dismutase 1, an enzyme with a major role in detoxifying ROS species generated during metabolism or because of environmental exposure. sod1 mutant cells are unprotected against oxidative agents, decreasing survival in their presence.
(§2) (A) Drop test of serial dilution of yeast cell cultures (wild type from genetic background W303, wild type from genetic background BY4741, and sod1 mutant from genetic background BY4741) exposed to Schiff bases at 200 µg/mL. A control without drug and with 2% DMSO are included.
(§3) The bacterial inoculum was prepared by emulsifying overnight colonies from an agar medium in broth (Mueller–Hinton broth). The suspensions were adjusted to a final organism density of 5 × 10^5 colony former units (cfu)/mL. […] The emulsifying of A. niger cultures was done by pouring 5 mL of saline and 0.1% of polysorbate 80 over the Petri dishes. Then, 100 µL of this suspension were diluted in 5 mL of saline and adjusted to an optical density of 0.1 at 530 nm. For S. cerevisiae, fresh exponential YPAD (yeast extract 1%, peptone 2%, adenine 0.004%, […]) cultures were adjusted to an optical density of 0.5 at 600 nm, and then diluted to the equivalent of 1 × 10^4 cells/mL (10^−3 dilution). Stock solutions of Schiff bases were prepared by dissolving them in DMSO at 10 mg/mL. […] The range of concentrations used was empirically selected for each organisms and the Schiff base. Drug sensitivities were assayed by serial dilutions in 96-well plates as previously described. A row with media and cells but without drug was the positive control. The blank was done by preparing a row with media and drugs, but without cells. Plates were fitted with a tight lid before incubation to prevent desiccation. […] The minimum bactericidal concentration (MBC) and fungicidal concentration (MFC) were determined by spreading 100 µL of culture from each well onto a plate (Mueller–Hinton agar for bacteria, Sabouraud dextrose agar for fungi except S. cerevisiae, and YPAD for S. cerevisiae).

Assay [5] has as its system S. cerevisiae sod1 mutant (BY4741). Description: growth inhibition (OD600) of sod1 mutant yeast, oxidative effect. Type of assay: cell-based, Saccharomyces cerevisiae. Here is the method: as §1, §2, §3

On to `Cc1c(N=Cc2ccccc2O)c(=O)n(-c2ccccc2)n1C` [Compound 3b, 4-(2-Hydroxybenzylideneamino)-1,5-dimethyl-2-phenyl-1H-pyrazol-3(2H)-one], for which the MIC in assay [1] is over 200 mg/L; in assay [2] (Escherichia coli, ATCC25922) it was 49.8 ± 5 mg/L (≈ 162 µM). For the same compound, the IC50 is 12.1 mg/L (≈ 39.4 µM) in assay [2] (Escherichia coli, ATCC25922); 192 mg/L (≈ 625 µM) in assay [4] (Saccharomyces cerevisiae, unit inferred); 101 mg/L (≈ 328 µM) in assay [5] (Saccharomyces cerevisiae, read-out: IC50 sod1). For the same compound, the “NIC E. coli” value in assay [2] (noninhibitory concentration) turned out to be 2.8 ± 0.5 µg/mL. In addition, in assay [3], the “antioxidant activity detected in the DPPH assay” value was “no significant antioxidant activity”. Moreover, the “NIC Wt” value in assay [4] (unit not given) came to 178.0 ± 2.1. Also, in assay [4] (unit not given, in µg/mL), the “MIC Wt” value is given as 208.2 ± 4.0. Moreover, in assay [5] (sod1 mutant BY4741, unit not given), the “NIC sod1” value was 53.3 ± 0.1. Moreover, the “MIC sod1” value in assay [5] (sod1 mutant BY4741, unit not given, in µg/mL) was determined as 164.1 ± 0.1.
